Target: T1, HlyU (Vibrio vulnificus, UniProt A0A3Q0L222)
T1 sequence (A0A3Q0L222 1-98): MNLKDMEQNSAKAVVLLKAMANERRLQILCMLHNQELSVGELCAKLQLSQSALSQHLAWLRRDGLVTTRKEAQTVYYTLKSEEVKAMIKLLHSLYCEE
Experiment: Vibrio reporter strain, pKK1305 (PrtxA-lux, activated by HlyU) in wild-type V. vulnificus
Format: cell-based
Conditions: Compound Group I; HlyU activity (RLU, DMSO = 100%), 30° C.
Experimental: Meanwhile, verification experiments using the Vibrio reporter strain were also conducted so as to exclude false positive results. It was identified that the effect of the compound was not limited only to E. coli using Vibrio vulnificus, each having the reporter plasmid (pZW1608) inhibited by HlyU, which was used for the E. coli reporter strain, and the plasmid (pKK1305) in which the promoter of the rtxA gene activated by HlyU is cloned in front of the bioluminescence operon.
The constructed wild-type Vibrio reporter strain was treated with sample compounds and cultured at 30° C., and cell growth and luminescence were measured in the same manner as the E. coli strain screening (FIG. 3 and FIG. 4).
In order to identify whether or not a specific structure of CM2660 has a significant effect on HlyU inhibition, the effect of HlyU inhibition by the compound CM2660 and derivatives thereof, “Compound Group I” (FIG. 5) was verified. For the purpose, the pKK1305 plasmid prepared in Example 1 was conjugated to the wild-type Vibrio vulnificus, and the Vibrio reporter strain (pKK1305 in wild-type V. vulnificus) thus produced was treated with various concentrations of the derivative compounds.
While culturing at 30° C., the growth of the reporter strain and the degree of bioluminescence thereof were measured in the same manner as in Example 1, and the RLU was calculated. The RLU of the DMSO-treated control group was expressed as 100% HlyU activity. HlyU activity was plotted according to the concentration of the derivative compound, and EC50 (half maximal effective concentration) was calculated using GraphPad Prism 7.0 (GraphPad Software, San Diego, Calif.) (FIG. 6, Table 2).

SMILES	EC50
O=C(Nc1scc2c1c(=O)oc1ccccc12)c1ccccc1 [LJ4451]	993 µM
O=C(CCc1ccccc1)Nc1scc2c1c(=O)oc1ccccc12 [LJ4458]	875 µM

Same assay, conditions: Compound Group II; HlyU activity (RLU, DMSO = 100%), 30° C.; read-out: EC50

SMILES	EC50
O=C(O)C#Cc1ccc([N+](=O)[O-])cc1 [LJ4526]	140 µM
CC(C)(C)OC(=O)CNC(=O)C#Cc1ccc(N)cc1 [LJ4531]	118 µM
CC(C)(C)OC(=O)CNC(=O)C#Cc1cccnc1 [LJ4532]	52.4 µM
O=C(O)CNC(=O)C#Cc1ccccc1 [LJ4533]	1140 µM

From US11510899B2, “RTX toxin production inhibitor and composition for treating symptom of vibrio infection by using same” (priority 2018, dated 2022)
